# Data taken from US10278931B2, “Composition for treatment of inflammatory bowel disease and atopic dermatitis” (INNOPHARMASCREEN INC., priority 2015, dated 2019).
# System: DSS-induced animal model
# Assay: DSS-induced inflammatory bowel disease (enteritis) model
# Assay type: in vivo, C57BL/6 mice
# Experimental: Six-week-old female SPF (Specific pathogen-free) C57BL/6 mice were purchased from DuPont Biotech. The mice were allowed to freely ingest a feed and water after an acclimation period of 1 week in an animal room of Hoseo University Safety Evaluation Center maintained at temperature of 21±3° C., humidity of 50±20%, and light/darkness cycle of 12 h/12 h. All procedures in the present animal experiment were conducted after approved by the Animal Experimental Ethics Committee of Hoseo University (HTRC-15-19, and HTRC-16-22(2)).
# Dextran sodium sulfate (cat no 160110 by Mpbio. corn) as a colitis inducer was diluted to 3% concentration in drinking water and orally administered to mice to induce enteritis. The mice were divided into 6 groups and DW was administered to the animals of a control, and 1.0 mg/kg and 10 mg/kg of the test material were orally administered to the animals of the experimental groups once a day for […]. Sulfasalazine (100 mg/kg) dissolved in crude olive oil was orally administered once a day to the animals of a positive control. In acute cases, disease progression levels were examined after 5 days of administration. In chronic cases, disease progression levels were examined 15 days and 30 days after the 5 days of administration (reference: Toxicology Reports 2 (2015) 10391045-Caryophyllene attenuates dextran sulfate sodium-induced colitis in mice via modulation of gene expression associated mainly with colon inflammation).
# Body weights were measured once for 5 days or more during the test period. The measured weights were quantified as 0 point if there was no difference compared with the normal control, 1 point for weight loss rate of 15%, 2 points for 510%, 3 points for 1015%, and 4 points for >15%. Feces observation was performed to examine the incidence of diarrhea, and the results thereof were quantified as scores (0, normal stool; 1, mildly soft stool; 2, very soft stool; 3, very soft stool (no regular shape); 4, watery stool).
# Rectal tissues and blood were collected from 5 individuals for each of the autopsy times. Yuhan ketamine 50® (Yuhan Corporation, Korean) and Rompun (Bayer, USA) were mixed in a ratio of 3:1, and then used to anesthetize animals via muscular injection. Each anesthetized animal was subjected to laparotomy to collect blood from the abdominal artery, and after blood collection, the abdominal artery was cut and subjected to venesection and death to collect rectal tissue. The length and weight of the collected tissue were measured to calculate weight per 1 cm of the tissue. Some of the collected tissues were used in biopsy, and some thereof were frozen in liquid nitrogen and stored at −70° C. before analysis. […]
smiles,measurement,setting,value
Cl.N=C(N)NC(=N)Nc1ccc(Cl)cc1 [IPS-07001],"enteritis inhibitory activity (ratio of enteric weight to enteric length, wt/cm)","10 mg/kg oral, compared to DSS control",superior enteritis inhibitory activity
same,melena,"compared to the DSS-induced group, oral",significantly decreased
